Patent publication US8232288B2, “Substituted benzimidazoles, benzothiazoles and benzoxazoles” (Gruenenthal GmbH, priority 2009, dated 2012)
Structures can show the parent of a compound that is named as a salt.

How the values were obtained:
[1] = target: T1, human B1R receptor (hB1R) (Homo sapiens, UniProt P46663); assay: Functional investigation on the bradykinin receptor 1 (B1R), FLIPR Ca2+ assay, hB1R cells; type: cell-based
T1 construct: expressed in transfected cells; host or cells: CHO K1 cells
T1 sequence (P46663 1-353): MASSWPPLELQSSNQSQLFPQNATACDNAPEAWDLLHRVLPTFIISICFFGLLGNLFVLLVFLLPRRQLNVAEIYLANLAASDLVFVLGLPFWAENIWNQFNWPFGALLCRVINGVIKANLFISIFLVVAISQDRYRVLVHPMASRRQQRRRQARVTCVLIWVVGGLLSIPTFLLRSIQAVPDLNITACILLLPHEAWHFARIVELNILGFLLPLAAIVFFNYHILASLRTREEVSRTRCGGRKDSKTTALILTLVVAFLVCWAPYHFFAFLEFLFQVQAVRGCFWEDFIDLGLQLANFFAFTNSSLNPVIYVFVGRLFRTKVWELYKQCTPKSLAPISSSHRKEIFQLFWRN
Summary of the method: (§1)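 Stably transfected CHO K1 cells expressing human or rat B1R were loaded with Fluo-4, and Ca2+ fluorescence was read on a FLIPR. Compound (10 μM) was added first to measure activation. After 10–20 min, agonist at EC80 was added (Lys-Des-Arg9-bradykinin for hB1R, Des-Arg9-bradykinin for rB1R) to give % inhibition. IC50 values came from concentration series.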

[2] = target: T2, B1R receptor of the rat (rB1R) (Rattus norvegicus, UniProt P97583); assay: Functional investigation on the bradykinin receptor 1 (B1R), FLIPR Ca2+ assay, rB1R cells; type: cell-based
T2 construct: expressed in transfected cells; host or cells: CHO K1 cells
T2 sequence (P97583 1-337): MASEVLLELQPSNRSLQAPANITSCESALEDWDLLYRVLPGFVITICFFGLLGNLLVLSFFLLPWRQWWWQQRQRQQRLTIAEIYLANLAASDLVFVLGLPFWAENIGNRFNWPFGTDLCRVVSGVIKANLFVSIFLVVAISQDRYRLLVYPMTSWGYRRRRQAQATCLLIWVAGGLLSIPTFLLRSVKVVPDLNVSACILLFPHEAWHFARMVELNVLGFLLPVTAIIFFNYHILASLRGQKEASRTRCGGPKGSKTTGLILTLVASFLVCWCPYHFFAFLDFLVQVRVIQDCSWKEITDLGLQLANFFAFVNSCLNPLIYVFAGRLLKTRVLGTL
Summary of the method: as §1

inhibition at 10 µM [1] [%] | inhibition at 10 µM [2] [%] | Structure (SMILES)
36 | 65 | COc1cc(C)c(S(=O)(=O)N(C)c2nc3c(C(=O)N4CCC5(CC4)CCN(c4ccncc4)C5)cccc3s2)c(C)c1 [I_CC-21, 4-methoxy-N,2,6-trimethyl-N-[4-(3-pyridin-4-yl-3,8-diazaspiro[4.5]decane-8-carbonyl)-benzothiazol-2-yl]-benzenesulfonic acid amide]
97 | 49 | COc1cc(C)c(S(=O)(=O)N2CCCCC2c2nc3cccc(C(=O)N4CCC5(CC4)CCN(c4ccncc4)CC5)c3[nH]2)c(C)c1 (stereo not shown) [I_18, [2-[1-[(4-methoxy-2,6-dimethyl-phenyl)sulfonyl]-piperidin-2-yl]-3H-benzoimidazol-4-yl]-(9-pyridin-4-yl-3,9-diazaspiro[5.5]undecan-3-yl)-methanone]
99 | 99 | CN(Cc1nc2cccc(C(=O)N3CCC4(CC3)CCN(c3ccncc3)CC4)c2[nH]1)S(=O)(=O)c1ccc(OC(F)(F)F)cc1Cl [I_11, 2-chloro-N-methyl-N-[[7-(9-pyridin-4-yl-3,9-diazaspiro[5.5]undecane-3-carbonyl)-1H-benzoimidazol-2-yl]-methyl]-4-(trifluoromethyloxy)-benzenesulfonic acid amide hydrochloride]
83 | 98 | COc1cc(C)c(S(=O)(=O)N(C)C(C)c2nc3cccc(C(=O)N4CCC5(CCN(Cc6cnn(C)c6C)CC5)CC4)c3[nH]2)c(C)c1 (stereo not shown) [I_CC-41, N-[1-[7-[9-[(1,5-Dimethyl-1H-pyrazol-4-yl)-methyl]-3,9-diazaspiro[5.5]undecane-3-carbonyl]-1H-benzoimidazol-2-yl]-ethyl]-4-methoxy-N,2,6-trimethyl-benzenesulfonic acid amide]
99 | 97 | COc1cc(C)c(S(=O)(=O)N(C)Cc2nc3cccc(C(=O)N4CCC5(CCC(N6CCC6)CC5)CC4)c3[nH]2)c(C)c1 [I_04, N-[[7-[9-(azetidin-1-yl)-3-azaspiro[5.5]undecane-3-carbonyl]-1H-benzoimidazol-2-yl]-methyl]-4-methoxy-N,2,6-trimethyl-benzenesulfonic acid amide]
98 | 92 | COc1cc(C)c(S(=O)(=O)N(C)C2(c3nc4cccc(C(=O)N5CCC6(CC5)CCN(c5ccncc5)CC6)c4[nH]3)CC2)c(C)c1 [I_12, 4-methoxy-N,2,6-trimethyl-N-[1-[7-(9-pyridin-4-yl-3,9-diazaspiro[5.5]undecane-3-carbonyl)-1H-benzoimidazol-2-yl]-cyclopropyl]-benzenesulfonic acid amide]
49 | 95 | COc1cc(C)c(S(=O)(=O)N(C)C(C)c2nc3cccc(C(=O)N4CCC5(CCN(Cc6ccc(F)cc6Cl)CC5)CC4)c3[nH]2)c(C)c1 (stereo not shown) [I_CC-39, N-[1-[7-[9-[(2-Chloro-4-fluoro-phenyl)-methyl]-3,9-diazaspiro[5.5]undecane-3-carbonyl]-1H-benzoimidazol-2-yl]-ethyl]-4-methoxy-N,2,6-trimethyl-benzenesulfonic acid amide]
99 | 95 | COc1cc(C)c(S(=O)(=O)N(Cc2nc3cccc(C(=O)N4CCC5(CC4)CCN(c4ccncc4)CC5)c3[nH]2)C2CC2)c(C)c1 [I_14, N-cyclopropyl-4-methoxy-2,6-dimethyl-N-[[7-(9-pyridin-4-yl-3,9-diazaspiro[5.5]undecane-3-carbonyl)-1H-benzoimidazol-2-yl]-methyl]-benzenesulfonic acid amide]
71 | 99 | COc1cc(C)c(S(=O)(=O)N(C)C(C)c2nc3cccc(C(=O)N4CCC5(CCN(Cc6ccc(F)cc6F)CC5)CC4)c3[nH]2)c(C)c1 (stereo not shown) [I_CC-32, N-[1-[7-[9-[(2,4-Difluoro-phenyl)-methyl]-3,9-diazaspiro[5.5]undecane-3-carbonyl]-1H-benzoimidazol-2-yl]-ethyl]-4-methoxy-N,2,6-trimethyl-benzenesulfonic acid amide]
93 | 94 | COc1cc(C)c(S(=O)(=O)N(C)Cc2nc3cccc(C(=O)N4CCC5(CC4)CC(c4ccncc4)=NO5)c3[nH]2)c(C)c1 [I_27, 4-methoxy-N,2,6-trimethyl-N-[[7-(3-pyridin-4-yl-1-oxa-2,8-diazaspiro[4.5]dec-2-ene-8-carbonyl)-1H-benzoimidazol-2-yl]-methyl]-benzenesulfonic acid amide]
98 | 93 | COc1cc(C)c(S(=O)(=O)N(C)Cc2nc3ccc(F)c(C(=O)N4CCC5(CC4)CCN(c4ccncc4)CC5)c3[nH]2)c(C)c1 [I_13, N-[[6-fluoro-7-(9-pyridin-4-yl-3,9-diazaspiro[5.5]undecane-3-carbonyl)-1H-benzoimidazol-2-yl]-methyl]-4-methoxy-N,2,6-trimethyl-benzenesulfonic acid amide]
84 | 101 | COc1cc(C)c(S(=O)(=O)N(C)C(C)c2nc3cccc(C(=O)N4CCC5(CCN(Cc6cccc(C#N)c6)CC5)CC4)c3[nH]2)c(C)c1 (stereo not shown) [I_CC-44, N-[1-[7-[9-[(3-Cyano-phenyl)-methyl]-3,9-diazaspiro[5.5]undecane-3-carbonyl]-1H-benzoimidazol-2-yl]-ethyl]-4-methoxy-N,2,6-trimethyl-benzenesulfonic acid amide]
72 | 82 | COc1cc(C)c(S(=O)(=O)N(C)c2nc3cccc(C(=O)N4CCC5(CC4)C(=O)NCC5c4ccncc4)c3n2C)c(C)c1 (stereo not shown) [I_CC-16, 4-methoxy-N,2,6-trimethyl-N-[1-methyl-7-(4-oxo-1-pyridin-4-yl-3,8-diazaspiro[4.5]decane-8-carbonyl)-1H-benzoimidazol-2-yl]-benzenesulfonic acid amide]
65 | 102 | CN(Cc1nc2cccc(C(=O)N3CCC4(CC3)CCN(c3ccncc3)CC4)c2[nH]1)C(=O)c1ccccc1Cl [I_CC-04, 2-chloro-N-methyl-N-[[7-(3-pyridin-4-yl-3,9-diazaspiro[5.5]undecane-9-carbonyl)-1H-benzoimidazol-2-yl]-methyl]-benzamide]
39 | 48 | COc1cc(C)c(S(=O)(=O)N(C)c2nc3ccc(C(=O)N4CCC5(CC4)CCN(c4ccncc4)C5)cc3n2C)c(C)c1 [I_CC-18, 4-methoxy-N,2,6-trimethyl-N-[1-methyl-6-(3-pyridin-4-yl-3,8-diazaspiro[4.5]decane-8-carbonyl)-1H-benzoimidazol-2-yl]-benzenesulfonic acid amide]
85 | 98 | COc1cc(C)c(S(=O)(=O)N(C)C(C)c2nc3cccc(C(=O)N4CCC5(CCN(Cc6ccc(C#N)cc6)CC5)CC4)c3[nH]2)c(C)c1 (stereo not shown) [I_CC-43, N-[1-[7-[9-[(4-Cyano-phenyl)-methyl]-3,9-diazaspiro[5.5]undecane-3-carbonyl]-1H-benzoimidazol-2-yl]-ethyl]-4-methoxy-N,2,6-trimethyl-benzenesulfonic acid amide]
100 | 105 | COc1cc(C)c(C(=O)N(C)Cc2nc3cccc(C(=O)N4CCC5(CC4)CCN(c4ccncc4)CC5)c3[nH]2)c(C)c1 [I_CC-23, 4-methoxy-N,2,6-trimethyl-N-[[7-(3-pyridin-4-yl-3,9-diazaspiro[5.5]undecane-9-carbonyl)-1H-benzoimidazol-2-yl]-methyl]-benzamide]
